Assay results reported in publication PMC5017749, “Preclinical Metabolism, Pharmacokinetics and In Vivo Analysis of New Blood-Brain-Barrier Penetrant Fingolimod Analogues: FTY720-C2 and FTY720-Mitoxy” (PLoS ONE, 2016).
Read-outs that look alike come from different tables or passages of the source.

Assays:
[1] = system: PP2A; experiment: Protein phosphatase (PP2A) assay in adrenal glands of treated mice; format: in vivo, male C57BL/6 mice; conditions: for increase of PP2A activity in mouse adrenal gland: as compared to untreated controls, route not given; for increase of PP2A activity in adrenal gland: up to 48 hr postdose, vs untreated control mice
Method: (§1) The objectives of this study were to evaluate the pharmacokinetic profiles of FTY720-C2 and FTY720-Mitoxy following single oral and intravenous (IV) dosing of male mice and to determine blood and tissue levels of both compounds at various postdose time points. Male C57BL/6 mice were 8.4 weeks of age and weighed 20.6–24.8 g on the day of dose administration. Each animal was identified by a unique number via an ear tag with a matching cage tag. Mice were administered (two mice per time point) a single equivalent molar dose of either FTY720-C2 (1 mg/kg) or FTY720-Mitoxy (2 mg/kg) by oral or intravenous administration. As the molecular weight of FTY720-Mitoxy (704.72 g/mol) is ~ two times greater than that of FTY720-C2 (349.51 g/mol), the dose level of FTY720-Mitoxy was double that of FTY720-C2. Details of the design showing group assignments, dose groups, dose levels, as well as blood collection and necropsy time points are shown in Table 2. At the appropriate time points after dosing and blood sample collection for bioanalysis, animals were euthanized by CO2 inhalation until unresponsive, followed by decapitation. Brains were rapidly harvested, rinsed with ice cold saline, blotted dry and bisected along the mid-line. The left and right hemispheres of the brain were weighed separately. Each was placed in separate tubes, immediately flash frozen in liquid nitrogen and stored at -70°C prior to evaluation. All samples were labeled with the test facility study number, animal identification number, dose group, date, collection interval, and tissue identity (left or right brain hemisphere). Adrenal glands from each mouse were also collected and flash frozen.
Adrenal glands from treated mice were homogenized in buffer containing 20 mM imidazole-HCl, 2 mM EDTA, 2 mM EGTA, plus protease inhibitors, at 4°C. The homogenates were centrifuged to remove particulates followed by free phosphate removal on MicrospinTM-G-25 columns (GE Healthcare). Aliquots of supernatants were incubated in 4-Nitrophenyl-phosphate (pNPP) buffer consisting of 50 mM Tris-HCl, pH 7.0, 0.1 mM CaCl2 with threonine-phosphopeptide (KRpTIRR) substrate. The reactions were run for 10 min at 30°C and stopped by placing samples on ice. Phosphate levels were determined by measuring absorbance at 650 nm using a Multiskan Spectrum plate reader (Thermo Scientific, Pittsburgh, PA) and were compared to freshly prepared standards as previously described, but using a malachite green solution prepared according to Fathi et al.. Samples from two mice per time point (n = 2) were assayed in triplicate to confirm technical fidelity.

[2] = Plasma and brain pharmacokinetics after single oral or intravenous dosing of mice; format: in vivo; conditions: for half-life / Tmax: male; for half-life: iv; for oral bioavailability: single oral dose
Method: as §1
FTY720-C2 and FTY720-Mitoxy concentrations in plasma and brain were determined by LC-MS/MS. Samples were first prepared by liquid-liquid extraction. To 50 μL of plasma or brain homogenate were added 50 μL of 0.1 M NaOH and 50 μL of internal standard solution (C17 sphingosine) in ethanol. Analytes were then extracted into 1 mL of methyl tert-butyl ether:dichloromethane mixture (75:25, v/v) by vortexing for 1 hr and centrifuged. Supernatants were evaporated to dryness under nitrogen. Residues were reconstituted in 150 μL of 50% methanol in water and spin filtered before applied onto XBridge C18 column (3.5-μm particle; Waters, Milford, MA) with a SecurityGuard C18 guard column (4.0 × 2.0 mm; Phenomenex Inc.). Separations were accomplished with a gradient of 0.1% acetic acid in water (v/v) versus 0.1% acetic acid in acetonitrile:methanol (75:25, v/v) at a rate of 0.5 mL/min. The eluents were further applied into an equipped API 4000 QTrap mass spectrometer (AB Sciex, Foster City, CA) with electrospray ionization (ESI) interface by two coupled LC-10 AT pumps, and monitored in multiple reaction monitoring (MRM) mode with precursor to product ion pairs for C17 sphingosine, FTY720-C2, and FTY720-Mitoxy as following: m/z 286.3 to 268.2, m/z 350.3 to 255.2, and m/z 624.4 to 289.2, respectively.
Pharmacokinetic analysis was conducted using WinNonlin Version 6.2 (Pharsight, Mountain View CA), operating as a validated software system. Non-compartmental analysis was conducted using a bolus intravenous administration model for IV dosing and an extravascular administration model for oral dosing. The peak plasma concentration, time to achieve peak plasma concentration, half-life, mean residence time, and area under the plasma or brain concentration-time curve (Cmax, Tmax, T1/2, and AUC) were calculated from mean animal plasma and brain concentrations. Nominal blood collection times were used for pharmacokinetic calculations.

[3] = Metabolic stability (intrinsic clearance) in monkey liver microsomes; format: in vitro ADME, monkey (Cynomolgus); conditions: for percent of the remaining compound: after 60 minute incubation
Method: Liver microsomal incubations contained 0.1mg/mL microsomal proteins and 1 μM of FTY720-C2 or FTY720-Mitoxy in 100 mM potassium phosphate buffer (pH 7.4) ± an NADPH regenerating system (3.5 mM glucose 6-phosphate, 1.3 mM NADP^+, and 0.4 units/mL glucose-6-phosphate dehydrogenase). Following incubations, reactions were terminated for analysis after 0, 10, 20, 30, and 60 min by the addition of acetonitrile containing C17 sphingosine (300 ng/mL) as the internal standard. Samples were vigorously mixed and centrifuged at 3,400 rpm for 10 min to pellet precipitated proteins. An aliquot of each supernatant was used for LC/MS analysis, for determination of the remaining FTY720-C2 and FTY720-Mitoxy. Similar incubations were performed using a cocktail solution containing 0.2 μM midazolam and 1 μM diclofenac to determine the metabolic activity of the microsomes as an additional control.
Samples resulting from liver microsomal incubations were analyzed by LC-MS/MS. Aliquots of the supernatants were injected onto an X-Bridge C18 column (2.1 × 50 mm, 3.5-μm particles) (Waters, Milford, MA), preceded by a SecurityGuard C18 guard column (4.0 × 2.0 mm; Phenomenex Inc.). Separations were accomplished with a gradient of 0.1% acetic acid in water (v/v) versus 0.1% acetic acid in acetonitrile: methanol (75:25, v/v) at a rate of 0.8 mL/min. The eluents were further applied into an equipped API 4000 QTrap mass spectrometer (AB Sciex, Foster City, CA) with electrospray ionization (ESI) interface by two coupled LC-10 AT pumps. Peak area ratios of FTY720-C2 or FTY720-Mitoxy against the C17 sphingosine internal standard were used to determine the amount of parent remaining compared to that at 0 min. The percent of FTY720-C2 or FTY720-Mitoxy remaining was calculated by dividing the peak area ratio obtained at each time point by that obtained at 0 min. The in vitro intrinsic clearance (CLint) was calculated by linear regression of the log percent of compound remaining versus time plots using Microsoft Excel, two independent experiments (n = 2) were performed for each compound and species. Then, the mean and standard deviation (SD), of two values for each condition, were calculated using Microsoft Excel with the “AVERAGE” and “STDEV” functions, respectively.

[4] = IV administration, sampling 5 min, 8, 24, 48 hr
[5] = oral administration, 1 mg/kg, first sampling time point

## CCCCCCCCc1ccc(CCC(CO)(CO)NC(=O)CC[P+](c2ccccc2)(c2ccccc2)c2ccccc2)cc1 [FTY720-Mitoxy, N-(1-hydroxy-2-(hydroxymethyl)-4-(4-octylphenyl)butan-2-yl)-3’-triphenylphosphoniumpropanamide]
[1]
  increase of PP2A activity in mouse adrenal gland: ~ 2 fold
[1]; single oral dose (FTY720-C2 1 mg/kg, FTY720-Mitoxy 2 mg/kg)
  increase of PP2A activity in adrenal gland: no stimulating effect
[2]; [4]
  detected in plasma and brain up to (postdose): 48 h
[2]; IV dosing
  time to penetrate the blood-brain-barrier after delivery: ≤ 5 min
[2]; IV dosing, FTY720-C2 1 mg/kg or FTY720-Mitoxy 2 mg/kg, first sampling time point
  Tmax / time of highest concentration in brain: 5 min
[2]; mouse, in vivo, 2 mg/kg, IV dosing, 2 mg/kg, read-out: brain elimination half-life (converted)
  half-life: 106 min
[2]; mouse, in vivo, 2 mg/kg, IV dosing, 2 mg/kg, read-out: plasma elimination half-life (converted)
  half-life: 56.4 min
[2]; mouse, in vivo, 2 mg/kg, mice, IV, plasma and brain, read-out: half-lives
  half-life: < 120 min
[2]; mouse, in vivo, IV dosing, FTY720-C2 1 mg/kg or FTY720-Mitoxy 2 mg/kg, first sampling time point, read-out: Tmax / time of highest concentration in plasma (converted)
  Tmax: 5 min
[2]; mice
  partitioning to brain: preferentially partition to brain
  oral bioavailability: not orally bioavailable
[2]; oral, 2 mg/kg
  detection in plasma or brain following oral dosing: not detected
[3]; monkey liver microsomes
  intrinsic clearance interpreted in words: high
  percent of the remaining compound: 1.4 ± 0.3%
[3]; monkey liver microsomes, 0.1 mg/mL protein, 1 μM, mean of two determinations
  Clint (intrinsic clearance): 135.3 ± 10.61 µL/min/mg
[3]; monkey, liver microsomes, pH 7.4, monkey liver microsomes, 0.1 mg/mL protein, 1 μM, mean of two determinations
  microsomal CLint at 1 μM: 135 µL/min/mg

## CCCCCCCCc1ccc(CCC(CO)(CO)NC(C)=O)cc1 [FTY720-C2, N-(1-hydroxy-2-(hydroxymethyl)-4-(4-octylphenyl)butan-2-yl)acetamide]
[1]
  increase of PP2A activity in mouse adrenal gland: ~ 2 fold
[1]; single IV dose (FTY720-C2 1 mg/kg, FTY720-Mitoxy 2 mg/kg)
  increase of PP2A activity in adrenal gland: 2 fold
[2]; [4]
  detected in plasma and brain up to (postdose): 8 h
[2]; IV dosing
  time to penetrate the blood-brain-barrier after delivery: ≤ 5 min
[2]; after both IV and oral dosing, 8 hr postdose
  brain concentrations compared with plasma at 8 hr postdose: much higher
[2]; C57BL/6, mouse, brain, IV dosing, FTY720-C2 1 mg/kg or FTY720-Mitoxy 2 mg/kg, first sampling time point, read-out: Tmax / time of highest concentration in brain (converted)
  Tmax: 5 min
[2]; C57BL/6, mouse, plasma, IV dosing, FTY720-C2 1 mg/kg or FTY720-Mitoxy 2 mg/kg, first sampling time point, read-out: Tmax / time of highest concentration in plasma (converted)
  Tmax: 5 min
[2]; mice
  partitioning to brain: preferentially partition to brain
  oral bioavailability: orally bioavailable
[2]; [5]
  time of highest concentration in brain: 1 h
  time of highest concentration in plasma: 1 h
[2]; oral administration, sampling 1, 8, 24, 48 hr
  detected in plasma and brain up to (postdose): 8 h
[3]; monkey liver microsomes
  intrinsic clearance interpreted in words: moderate
  percent of the remaining compound: 30.0 ± 0.3%
[3]; pH 7.4, monkey liver microsomes, 0.1 mg/mL protein, 1 μM, mean of two determinations
  microsomal CLint at 1 μM: 20.2 µL/min/mg
